Reference: US20200138772A1, “STABILIZED FORMULATIONS OF CANNABINOID COMPOSITIONS” (priority 2018, published 2020)
Read-outs that look alike come from different tables or passages of the source.

Legend:
[1] = Randomized, double blind, parallel bioavailability study (plasma CBD, THC and metabolites by LCMS); conditions: human, oral
Method: Dosage was standardized to 10 mg of THC. […] Secondary outcome was a subjective evaluation of drug effects assessed using modified Drug Effects Questionnaire (DEQ-5) for the control product and the experimental product. Relevant experimental descriptions of several study aspects are detailed below.
Administration: A pre-dose plasma (via IV catheter) and a urine sample is collected from the participant before the administration of the emulsions/formulations. […] The bowl in which the product is mixed is rinsed with 100 ml water and the participant consumes the complete amount. After the product mixture is consumed, the participant is provided with an 8 oz glass of water that is then consumed in its entirety within 1-2 minutes.
The samples are also analyzed for HbAlc, CBC, electrolytes (Na, K, Cl, Ca), creatinine, estimated glomerular filtration rate (eGFR), aspartate aminotransferase (AST), alanine aminotransferase (ALT), and bilirubin. Urine samples are also obtained at the following time ranges: 1-4 hrs, 4-8 hrs and 8-12 hrs.
Plasma and urine samples are collected at KGK Science.

[2] = cited from earlier work; for time to achieve peak plasma concentration (tmax): different doses; for half-life / systemic bioavailability: humans

Compound	Tmax [1] [min]	time to achieve peak plasma concentration (tmax) [2] [h]	half-life ([2]; intravenous injection) [h]	half-life ([2]; oral administration) [h]	half-life ([2]; smoking) [h]	systemic bioavailability ([2]; oral)	maximal plasma concentrations observed as late as ([2]; orally taken, in some cases) [h]	systemic bioavailability ([2]; smoked)
C=C(C)[C@@H]1CCC(C)=C[C@H]1c1c(O)cc(CCCCC)cc1O [CBD, (−)-Cannabidiol (CBD)]	10 to 85	1.5 to 4	18 to 33	48 to 120	27 to 35			
CCCCCc1cc(O)c2c(c1)OC(C)(C)[C@@H]1CCC(C)=C[C@@H]21 [Δ^9-THC, Δ^9-Tetrahydrocannabinol (Δ^9-THC)]	10 to 90	1 to 2				4-12%	≤ 6	10-27%
